Reference: ChEMBL document CHEMBL1201862, “PubChem BioAssay data set” (2004)
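Growth conditions: 96-well plates. Treatment: test compound, 48 hours, 5 concentrations. Analysis: linear interpolation between bracketing concentrations; unreached endpoints set to highest concentration. GI50 = concentration required for 50% inhibition of growth.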 Activity calls are given as the source filed them. No stated cut-off is given here; in the data, active = GI50 up to about 1.1 µM and inactive = higher.

Experiments:
Experiment in all cases: growth of human tumour cells (NCI), 48 h
HCC 2998 = test system: HCC 2998
NCI/ADR-RES = test system: NCI/ADR-RES
CCRF-CEM = test system: CCRF-CEM
KM12 = test system: KM12
OVCAR-3 = test system: OVCAR-3
RPMI-8226 = test system: RPMI-8226
SW-620 = test system: SW-620
SR = test system: SR
RXF 393 = test system: RXF 393
Hs-578T = test system: Hs-578T
A549 = test system: A549
HT-29 = test system: HT-29
MOLT-4 = test system: MOLT-4
HOP-62 = test system: HOP-62
SF-295 = test system: SF-295
SK-MEL-28 = test system: SK-MEL-28
SK-OV-3 = test system: SK-OV-3
M14 = test system: M14
NCI-H460 = test system: NCI-H460
OVCAR-5 = test system: OVCAR-5
OVCAR-8 = test system: OVCAR-8
MDA-N = test system: MDA-N
IGROV-1 = test system: IGROV-1
A498 = test system: A498
NCI-H226 = test system: NCI-H226
CAKI-1 = test system: CAKI-1
COLO 205 = test system: COLO 205
UACC-257 = test system: UACC-257
U-251 = test system: U-251
SNB-75 = test system: SNB-75
PC-3 = test system: PC-3
ACHN = test system: ACHN
SF-539 = test system: SF-539
NCI-H522 = test system: NCI-H522
BT-549 = test system: BT-549
Malme-3M = test system: Malme-3M
SK-MEL-2 = test system: SK-MEL-2
HCT-15 = test system: HCT-15
HOP-92 = test system: HOP-92
MDA-MB-231 = test system: MDA-MB-231
UO-31 = test system: UO-31
786-0 = test system: 786-0
HCT-116 = test system: HCT-116
MCF7 = test system: MCF7
OVCAR-4 = test system: OVCAR-4
EKVX = test system: EKVX
NCI-H23 = test system: NCI-H23
UACC-62 = test system: UACC-62
HL-60 = test system: HL-60
MDA-MB-435 = test system: MDA-MB-435
SN12C = test system: SN12C
SK-MEL-5 = test system: SK-MEL-5
T47D = test system: T47D

CCCCC1=NNC(=O)C1
GI50 (HCC 2998): > 100 µM (inactive)
GI50 (NCI/ADR-RES): > 100 µM (inactive)
GI50 (CCRF-CEM): > 100 µM (inactive)
GI50 (KM12): > 100 µM (inactive)
GI50 (OVCAR-3): > 100 µM (inactive)
GI50 (RPMI-8226): > 100 µM (inactive)
GI50 (SW-620): > 100 µM (inactive)
GI50 (SR): > 100 µM (inactive)
GI50 (RXF 393): > 100 µM (inactive)
GI50 (Hs-578T): 4.9 µM (inactive)
GI50 (A549): > 100 µM (inactive)
GI50 (HT-29): > 100 µM (inactive)
GI50 (MOLT-4): > 100 µM (inactive)
GI50 (HOP-62): > 100 µM (inactive)
GI50 (SF-295): > 100 µM (inactive)
GI50 (SK-MEL-28): > 100 µM (inactive)
GI50 (SK-OV-3): > 100 µM (inactive)
GI50 (M14): > 100 µM (inactive)
GI50 (NCI-H460): > 100 µM (inactive)
GI50 (OVCAR-5): > 100 µM (inactive)
GI50 (OVCAR-8): > 100 µM (inactive)
GI50 (MDA-N): > 100 µM (inactive)
GI50 (IGROV-1): > 100 µM (inactive)
GI50 (A498): > 100 µM (inactive)
GI50 (NCI-H226): > 100 µM (inactive)
GI50 (CAKI-1): > 100 µM (inactive)
GI50 (COLO 205): > 100 µM (inactive)
GI50 (UACC-257): > 100 µM (inactive)
GI50 (U-251): > 100 µM (inactive)
GI50 (SNB-75): > 100 µM (inactive)
GI50 (PC-3): > 100 µM (inactive)
GI50 (ACHN): > 100 µM (inactive)
GI50 (SF-539): > 100 µM (inactive)
GI50 (NCI-H522): > 100 µM (inactive)
GI50 (BT-549): > 100 µM (inactive)
GI50 (Malme-3M): > 100 µM (inactive)
GI50 (SK-MEL-2): > 100 µM (inactive)
GI50 (HCT-15): > 100 µM
GI50 (HOP-92): > 100 µM (inactive)
GI50 (MDA-MB-231): > 100 µM (inactive)
GI50 (UO-31): > 100 µM (inactive)
GI50 (786-0): > 100 µM (inactive)
GI50 (HCT-116): > 100 µM (inactive)
GI50 (MCF7): > 100 µM (inactive)
GI50 (OVCAR-4): > 100 µM (inactive)
GI50 (EKVX): > 100 µM (inactive)
GI50 (NCI-H23): > 100 µM (inactive)
GI50 (UACC-62): > 100 µM (inactive)
GI50 (HL-60): > 100 µM (inactive)
GI50 (MDA-MB-435): > 100 µM (inactive)
GI50 (SN12C): > 100 µM (inactive)
GI50 (SK-MEL-5): > 100 µM (inactive)
GI50 (T47D): > 100 µM (inactive)
